Measured values reported in paper PMC7311426, “An amphipathic peptide with antibiotic activity against multidrug-resistant Gram-negative bacteria” (Nature Communications, 2020).
≈ marks a conversion by molar mass, not a printed value. Read-outs that look alike come from different tables or passages of the source.

What was measured:
Experiment in all cases: microbe, parasite or virus in culture
A. baumannii = conditions: Acinetobacter baumannii, mode of 6 replicates
Outline: (§1)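 MICs were scored by eye after 18-20 h static incubation at 37 °C, with bacteria at 5 × 10^5 CFU mL^−1 in MHB. Peptides were serially diluted 2-fold over 12 points, top 128 or 64 μg mL^−1. CAMHB (CLSI) and 1% agarose-MHB variants were also run, at least six replicates.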

E. coli = conditions: Escherichia coli
Outline: as §1

K. pneumoniae = conditions: Klebsiella pneumoniae
Outline: as §1

P. aeruginosa = conditions: Pseudomonas aeruginosa
Outline: as §1

## C[C@@H](O)[C@H]1C(=O)N2C(C(=O)O)=C(S[C@@H]3CN[C@H](C(=O)N(C)C)C3)[C@H](C)[C@H]12 [Meropenem, meropenem, reference compound]
A. baumannii; ATCC19636, read-out: BMD MIC, A. baumannii ATCC 19636 type strain, CAMHB
  MIC: 1 µg/mL (≈ 2.61 µM)
A. baumannii; ATCC19636, read-out: BMD MIC, A. baumannii ATCC 19636 type strain, MHB
  MIC: 0.5 µg/mL (≈ 1.3 µM)
A. baumannii; read-out: BMD MIC, A. baumannii Greece CI, XDR, PmxR, MHB
  MIC: > 16 µg/mL
E. coli; ATCC25922, read-out: BMD MIC, E. coli ATCC 25922 FDA control strain, CAMHB, mode of 6 replicates
  MIC: ≤ 0.06 µg/mL
E. coli; ATCC25922, read-out: BMD MIC, E. coli ATCC 25922 FDA control strain, MHB, mode of 6 independent biological replicates
  MIC: 0.015 µg/mL (≈ 0.0391 µM)
E. coli; ATCC700926 / MG1655, read-out: BMD MIC
  MIC: ≤ 0.03 µg/mL
E. coli; ATCC700928, read-out: BMD MIC, E. coli ATCC 700928 CFT073 UPEC, CAMHB, mode of 6 replicates
  MIC: ≤ 0.25 µg/mL
E. coli; read-out: BMD MIC
  MIC: ≤ 0.25 µg/mL
E. coli; read-out: MIC against E. coli AID#172 MDR clinical isolate, BMD
  MIC: 0.125 µg/mL (≈ 0.326 µM)
E. coli; read-out: MIC against ESBL producing E. coli DSA 443, BMD
  MIC: 0.032 µg/mL (≈ 0.0834 µM)
E. coli; read-out: MIC, broth microdilution, E. coli AUD172 parent strain not exposed to drug
  MIC: 0.015 µg/mL (≈ 0.0391 µM)
E. coli; read-out: MIC, broth microdilution, E. coli AUD172 spontaneous mutant, AA139 selection 4X, plate 2, colony 2, drug-free passage 1
  MIC: 0.015 µg/mL (≈ 0.0391 µM)
E. coli; read-out: MIC, broth microdilution, E. coli AUD172 spontaneous mutant, AA139 selection 4X, plate 2, colony 2, drug-free passage 5
  MIC: 0.03 µg/mL (≈ 0.0782 µM)
K. pneumoniae; ATCC13883, read-out: BMD MIC, K. pneumoniae ATCC 13883 type strain (polymyxin/colistin heteroresistant), MHB, mode of 6 replicates
  MIC: ≤ 0.25 µg/mL
K. pneumoniae; ATCC700603, read-out: BMD MIC, K. pneumoniae ATCC 700603 (K6), MDR, OXA-2/SHV-18, CAMHB, mode of 6 replicates
  MIC: 0.06 µg/mL (≈ 0.156 µM)
K. pneumoniae; ATCC700603, read-out: BMD MIC, K. pneumoniae ATCC 700603 (K6), MDR, OXA-2/SHV-18, MHB, mode of 6 replicates
  MIC: ≤ 0.25 µg/mL
K. pneumoniae; BAA2146, read-out: BMD MIC, K. pneumoniae BAA-2146, MDR, ESBL, NDM-1 pos, MHB, mode of 6 replicates
  MIC: > 32 µg/mL
K. pneumoniae; read-out: BMD MIC, K. pneumoniae Greece CI 8_GR_13, XDR, KPC-2, PmxR, MHB, mode of 6 replicates
  MIC: > 32 µg/mL
K. pneumoniae; read-out: MIC, broth microdilution, K. pneumoniae 3010 spontaneous mutant, AA139 selection 4X, plate 1, colony 1, drug-free passage 1
  MIC: 0.03 µg/mL (≈ 0.0782 µM)
K. pneumoniae; read-out: MIC, broth microdilution, K. pneumoniae 3010 spontaneous mutant, AA139 selection 4X, plate 1, colony 1, drug-free passage 5
  MIC: 0.015 µg/mL (≈ 0.0391 µM)
K. pneumoniae; read-out: MIC, broth microdilution, K. pneumoniae 3010 spontaneous mutant, AA139 selection 8X, plate 1, colony 1, drug-free passage 1
  MIC: 0.03 µg/mL (≈ 0.0782 µM)
K. pneumoniae; read-out: MIC, broth microdilution, K. pneumoniae 3010 spontaneous mutant, AA139 selection 8X, plate 1, colony 1, drug-free passage 5
  MIC: 0.03 µg/mL (≈ 0.0782 µM)
K. pneumoniae; read-out: MIC, broth microdilution, K. pneumoniae ST258 spontaneous mutant, AA139 selection 4X, plate 1, colony 1, drug-free passage 1
  MIC: > 4 µg/mL
K. pneumoniae; read-out: MIC, broth microdilution, K. pneumoniae ST258 spontaneous mutant, AA139 selection 4X, plate 1, colony 1, drug-free passage 5
  MIC: > 4 µg/mL
P. aeruginosa; ATCC27853, read-out: BMD MIC, P. aeruginosa ATCC 27853 control strain, CAMHB, mode of 6 replicates
  MIC: ≤ 0.25 µg/mL
P. aeruginosa; ATCC27853, read-out: MIC, broth microdilution, P. aeruginosa ATCC 27853 spontaneous mutant, AA139 selection 4X, plate 1, colony 1, drug-free passage 1
  MIC: 0.25 µg/mL (≈ 0.652 µM)
P. aeruginosa; ATCC27853, read-out: MIC, broth microdilution, P. aeruginosa ATCC 27853 spontaneous mutant, AA139 selection 4X, plate 1, colony 1, drug-free passage 5
  MIC: 0.5 µg/mL (≈ 1.3 µM)
P. aeruginosa; ATCC27853, read-out: MIC, broth microdilution, P. aeruginosa ATCC 27853 spontaneous mutant, AA139 selection 4X, plate 1, colony 2, drug-free passage 1
  MIC: 0.5 µg/mL (≈ 1.3 µM)
P. aeruginosa; ATCC27853, read-out: MIC, broth microdilution, P. aeruginosa ATCC 27853 spontaneous mutant, AA139 selection 4X, plate 1, colony 2, drug-free passage 5
  MIC: 0.25 µg/mL (≈ 0.652 µM)
P. aeruginosa; ATCC27853, read-out: MIC, broth microdilution, P. aeruginosa ATCC 27853 spontaneous mutant, AA139 selection 4X, plate 1, colony 3, drug-free passage 1
  MIC: 1 µg/mL (≈ 2.61 µM)
P. aeruginosa; ATCC27853, read-out: MIC, broth microdilution, P. aeruginosa ATCC 27853 spontaneous mutant, AA139 selection 4X, plate 1, colony 3, drug-free passage 5
  MIC: 0.5 µg/mL (≈ 1.3 µM)
P. aeruginosa; ATCC27853, read-out: MIC, broth microdilution, P. aeruginosa ATCC 27853 spontaneous mutant, AA139 selection 4X, plate 1, colony 4, drug-free passage 1
  MIC: 1 µg/mL (≈ 2.61 µM)
P. aeruginosa; ATCC27853, read-out: MIC, broth microdilution, P. aeruginosa ATCC 27853 spontaneous mutant, AA139 selection 4X, plate 1, colony 4, drug-free passage 5
  MIC: 0.5 µg/mL (≈ 1.3 µM)
P. aeruginosa; ATCC27853, read-out: MIC, broth microdilution, P. aeruginosa ATCC 27853 spontaneous mutant, AA139 selection 4X, plate 1, colony 5, drug-free passage 1
  MIC: 0.25 µg/mL (≈ 0.652 µM)
P. aeruginosa; ATCC27853, read-out: MIC, broth microdilution, P. aeruginosa ATCC 27853 spontaneous mutant, AA139 selection 4X, plate 1, colony 5, drug-free passage 5
  MIC: 0.5 µg/mL (≈ 1.3 µM)
P. aeruginosa; ATCC27853, read-out: MIC, broth microdilution, P. aeruginosa ATCC 27853 spontaneous mutant, AA139 selection 4X, plate 1, colony 6, drug-free passage 1
  MIC: 0.5 µg/mL (≈ 1.3 µM)
P. aeruginosa; ATCC27853, read-out: MIC, broth microdilution, P. aeruginosa ATCC 27853 spontaneous mutant, AA139 selection 4X, plate 1, colony 6, drug-free passage 5
  MIC: 0.5 µg/mL (≈ 1.3 µM)
P. aeruginosa; ATCC27853, read-out: MIC, broth microdilution, P. aeruginosa ATCC 27853 spontaneous mutant, AA139 selection 4X, plate 2, colony 1, drug-free passage 1
  MIC: 0.25 µg/mL (≈ 0.652 µM)
P. aeruginosa; ATCC27853, read-out: MIC, broth microdilution, P. aeruginosa ATCC 27853 spontaneous mutant, AA139 selection 4X, plate 2, colony 1, drug-free passage 5
  MIC: 0.25 µg/mL (≈ 0.652 µM)
P. aeruginosa; ATCC27853, read-out: MIC, broth microdilution, P. aeruginosa ATCC 27853 spontaneous mutant, AA139 selection 4X, plate 2, colony 2, drug-free passage 1
  MIC: 0.5 µg/mL (≈ 1.3 µM)
P. aeruginosa; ATCC27853, read-out: MIC, broth microdilution, P. aeruginosa ATCC 27853 spontaneous mutant, AA139 selection 4X, plate 2, colony 2, drug-free passage 5
  MIC: 0.25 µg/mL (≈ 0.652 µM)
P. aeruginosa; ATCC27853, read-out: MIC, broth microdilution, P. aeruginosa ATCC 27853 spontaneous mutant, AA139 selection 4X, plate 2, colony 3, drug-free passage 1
  MIC: 0.5 µg/mL (≈ 1.3 µM)
P. aeruginosa; ATCC27853, read-out: MIC, broth microdilution, P. aeruginosa ATCC 27853 spontaneous mutant, AA139 selection 4X, plate 2, colony 3, drug-free passage 5
  MIC: 0.25 µg/mL (≈ 0.652 µM)
P. aeruginosa; ATCC27853, read-out: MIC, broth microdilution, P. aeruginosa ATCC 27853 spontaneous mutant, AA139 selection 4X, plate 2, colony 4, drug-free passage 1
  MIC: 0.5 µg/mL (≈ 1.3 µM)
P. aeruginosa; ATCC27853, read-out: MIC, broth microdilution, P. aeruginosa ATCC 27853 spontaneous mutant, AA139 selection 4X, plate 2, colony 4, drug-free passage 5
  MIC: 0.25 µg/mL (≈ 0.652 µM)
P. aeruginosa; ATCC27853, read-out: MIC, broth microdilution, P. aeruginosa ATCC 27853 spontaneous mutant, AA139 selection 8X, plate 1, colony 1, drug-free passage 1
  MIC: 0.5 µg/mL (≈ 1.3 µM)
P. aeruginosa; ATCC27853, read-out: MIC, broth microdilution, P. aeruginosa ATCC 27853 spontaneous mutant, AA139 selection 8X, plate 1, colony 1, drug-free passage 5
  MIC: 0.5 µg/mL (≈ 1.3 µM)
P. aeruginosa; ATCC27853, read-out: MIC, broth microdilution, P. aeruginosa ATCC 27853 spontaneous mutant, AA139 selection 8X, plate 1, colony 2, drug-free passage 1
  MIC: 0.25 µg/mL (≈ 0.652 µM)
P. aeruginosa; ATCC27853, read-out: MIC, broth microdilution, P. aeruginosa ATCC 27853 spontaneous mutant, AA139 selection 8X, plate 1, colony 2, drug-free passage 5
  MIC: 0.5 µg/mL (≈ 1.3 µM)
P. aeruginosa; ATCC27853, read-out: MIC, broth microdilution, P. aeruginosa ATCC 27853 spontaneous mutant, AA139 selection 8X, plate 1, colony 3, drug-free passage 1
  MIC: 0.25 µg/mL (≈ 0.652 µM)
P. aeruginosa; ATCC27853, read-out: MIC, broth microdilution, P. aeruginosa ATCC 27853 spontaneous mutant, AA139 selection 8X, plate 1, colony 3, drug-free passage 5
  MIC: 0.25 µg/mL (≈ 0.652 µM)
P. aeruginosa; ATCC27853, read-out: MIC, broth microdilution, P. aeruginosa ATCC 27853 spontaneous mutant, AA139 selection 8X, plate 1, colony 4, drug-free passage 1
  MIC: 0.5 µg/mL (≈ 1.3 µM)
P. aeruginosa; ATCC27853, read-out: MIC, broth microdilution, P. aeruginosa ATCC 27853 spontaneous mutant, AA139 selection 8X, plate 1, colony 4, drug-free passage 5
  MIC: 0.5 µg/mL (≈ 1.3 µM)
P. aeruginosa; ATCC27853, read-out: MIC, broth microdilution, P. aeruginosa ATCC 27853 spontaneous mutant, AA139 selection 8X, plate 1, colony 5, drug-free passage 1
  MIC: 0.5 µg/mL (≈ 1.3 µM)
P. aeruginosa; ATCC27853, read-out: MIC, broth microdilution, P. aeruginosa ATCC 27853 spontaneous mutant, AA139 selection 8X, plate 1, colony 5, drug-free passage 5
  MIC: 0.25 µg/mL (≈ 0.652 µM)
P. aeruginosa; read-out: BMD MIC, P. aeruginosa FADDI-070, MDR, PmxR, MHB/CAMHB, mode of 6 replicates
  MIC: 1 µg/mL (≈ 2.61 µM)
P. aeruginosa; read-out: MIC, broth microdilution, P. aeruginosa UNT 138-1 spontaneous mutant, AA139 selection 4X, plate 1, colony 1, drug-free passage 1
  MIC: 0.12 µg/mL (≈ 0.313 µM)
P. aeruginosa; read-out: MIC, broth microdilution, P. aeruginosa UNT 138-1 spontaneous mutant, AA139 selection 4X, plate 1, colony 1, drug-free passage 5
  MIC: 0.12 µg/mL (≈ 0.313 µM)
P. aeruginosa; read-out: MIC, broth microdilution, P. aeruginosa UNT 138-1 spontaneous mutant, AA139 selection 4X, plate 1, colony 2, drug-free passage 1
  MIC: 0.12 µg/mL (≈ 0.313 µM)
P. aeruginosa; read-out: MIC, broth microdilution, P. aeruginosa UNT 138-1 spontaneous mutant, AA139 selection 4X, plate 1, colony 2, drug-free passage 5
  MIC: 0.25 µg/mL (≈ 0.652 µM)
